# From patent publication US8420852B2, “Phospholipase A2 inhibitors and their use in treating neurological injury and disease” (The Regents of the University of California, priority 2007, dated 2013)
# Tested on: chemokine and cytokine protein expression in spinal cord
# Assay: mouse inflammation antibody array of spinal cords of EAE mice
# Type: in vivo
# Settings: treatment from day 5, tissue day 18
# Description: Spinal cords were removed from vehicle and inhibitor treated animals when the vehicle-treated mice reached the peak of disease (score of 4). The tissues were then homogenized in lysis buffer and centrifuged at 1000×g. These protein samples were then assessed using the Raybio® inflammatory antibody array from RayBiotech Inc (Norcross, Ga.). Briefly, blocking buffer was added to glass-chip slides, which are coated with antibodies against chemokine, cytokine and related proteins. The slides were then incubated with the various protein samples from the treatment and control groups. After washing the glass slides, they were incubated sequentially with a biotin conjugated secondary antibody solution, horseradish peroxidase (HRP)-conjugated strepavidin, and HRP detection buffer. The signals were then visualized by chemiluminescence. Densitometric analysis was performed to detect differences between the various samples using ImageQuant 5.1 software (Molecular Dynamics). Positive control signals were used to normalize the level of expression from different glass slides being compared. Experiments were repeated with 3 different samples (n=3), and all the detection and analysis was done blind.
# The results of this group of experiments are shown with the reference to FIGS. 15 and 16. FIG. 15 provides graphs showing the level of protein expression of chemokines in spinal cords of naive mice and EAE mice treated with PLA2 inhibitors starting on day 5. Tissues were taken on day 18, when the vehicle treated animals reached the peak of the first clinical attack. The data are shown for inhibitors AX059 (FIG. 15a) and AX115 (FIG. 15b). Data represent means±SEM from 3 animals in each group. In the figures, * represents a significant decrease, while ** represents a significant increase as compared to vehicle treated EAE controls.
# FIG. 16 provides graphs showing the level of protein expression of cytokines in spinal cords of naive mice and EAE treated mice treated with PLA2 inhibitors starting on day 5. Tissues were taken on day 18, when the vehicle treated animals reached the peak of the first clinical attack. The data are shown for inhibitors AX059 (FIG. 16a) and AX115 (FIG. 16b). Data represent means±SEM from 3 animals in each group. In the figures, * represents a significant decrease, while ** represents a significant increase as compared to vehicle treated EAE controls.
# Changes were assessed in protein expression of 40 chemokines and cytokines, their receptors and related molecules, using a mouse antibody array (RayBiotech Inc.). The analysis was carried out on spinal cords from mice treated with inhibitors starting from day 5 post-immunization. Tissue was taken on day 18 when the control vehicle-treated mice reached the peak of the first clinical attack. 12 chemokines were increased in vehicle-treated mice (FIG. 15), most of which are known to play a role in EAE, except for LIX (CXCL5) and TECK (CCL25), whose functions in CNS autoimmune disease remain unclear. […] In contrast, the pan-inhibitor AX115, which inhibits sPLA2 greater than AX059 reduced the expression of 7 of the 12 chemokines (FIG. 15b). Importantly, it increased the expression of eotaxin-2 (1.8-fold), RANTES (9.6-fold) and MIP-1 γ (9.7-fold) […], which can also regulate the allergic arm of the immune response.
structure (smiles),measurement,setting,value
CCCCCCCCCCCCCCC(=O)C(=O)NCC(=O)OC [AX115],number of chemokines reduced,of the 12 chemokines increased in vehicle-treated EAE mice,7
same,number of cytokines reduced,of the 13 cytokines increased in vehicle-treated EAE mice,9
same,increase in expression of IL-10,spinal cord,failed to increase IL-10
same,increase in expression of MIP-1 γ,spinal cord,9.7 fold
same,increase in expression of RANTES,spinal cord,9.6 fold
same,increase in expression of eotaxin-2,spinal cord,1.8 fold
same,increase in soluble TNF receptor 1 (sTNFR1),spinal cord,~4 fold
